The results in this text go back to patent US11225469B2, “Inhibitors of phosphoglycerate dehydrogenase (PHGDH) and uses thereof” (Whitehead Institute for Biomedical Research, priority 2015, dated 2022).

What is called IC50 is the concentration that gives 50% inhibition.

The experiment deals with PHGDH (Homo sapiens (Human), UniProt O43175). As to the kind of experiment: PHGDH inhibition, coupled assay with PSAT1/PSPH and diaphorase/resazurin readout. Format: biochemical. The following applies: Table E9; mixture with PSAT1, PSPH; diaphorase/resazurin reporter. In general terms: Resazurin is reduced to fluorescent resorufin, in cell work by metabolically active cells.
Sequence of PHGDH (O43175 whole entry): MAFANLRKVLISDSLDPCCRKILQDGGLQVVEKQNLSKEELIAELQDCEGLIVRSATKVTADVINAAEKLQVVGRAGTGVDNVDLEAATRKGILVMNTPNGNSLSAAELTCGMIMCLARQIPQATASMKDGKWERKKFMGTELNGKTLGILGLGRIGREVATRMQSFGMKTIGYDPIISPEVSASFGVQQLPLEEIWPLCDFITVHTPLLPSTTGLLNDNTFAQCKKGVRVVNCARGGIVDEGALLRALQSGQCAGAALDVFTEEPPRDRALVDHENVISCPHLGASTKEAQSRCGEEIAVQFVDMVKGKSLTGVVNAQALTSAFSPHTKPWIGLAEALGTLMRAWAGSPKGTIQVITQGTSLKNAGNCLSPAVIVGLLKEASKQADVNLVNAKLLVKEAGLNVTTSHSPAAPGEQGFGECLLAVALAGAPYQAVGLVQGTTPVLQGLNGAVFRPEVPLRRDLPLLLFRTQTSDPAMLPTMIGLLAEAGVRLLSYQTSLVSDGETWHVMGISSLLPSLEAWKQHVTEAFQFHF

Turning to `Cc1cc(C)nc(NC(=S)N2CCN(c3cccc(Cl)c3Cl)CC2)c1` [Compound 93], the IC50 is 5 to 10 µM.
The result for `Cc1cc(C)nc(NC(=S)N2CCN(c3ccc(C(F)(F)F)cc3[N+](=O)[O-])CC2)c1` [Compound 110] reads 5 to 10 µM; that for `Cc1cc(C)nc(NC(=S)N2CCN(c3nnc(C(F)(F)F)s3)CC2)c1` [Compound 107], 10 to 20 µM; that for `FC(F)(F)c1cccc(N2CCN(C(=S)Nc3nc[nH]n3)CC2)c1` [Compound 234], at least 20 µM.
Turning to `Cc1ccnc(N(C)C(=S)N2CCN(c3cccc(C(F)(F)F)c3)CC2)c1` [Compound 52], the IC50 was at least 20 µM.
As for `Cc1ccnc(NC(=S)N2CCCN(c3cccc(C(F)(F)F)c3)CC2)c1` [Compound 49], the IC50 fell in the range of 10 to 20 µM.
The result for `Cc1cc(C)nc(NC(=S)N2CC3CN(c4ccc(Cl)cc4C(F)(F)F)CC3C2)c1` (stereo not shown) [Compound 223] reads 10 to 20 µM; that for `Cc1ccnc(NC(=S)N2CCN(c3cccc(C(F)(F)F)n3)CC2)c1` [Compound 175], below 5 µM; that for `Cc1cc(C)nc(NC(=S)N2CCN(c3nccs3)CC2)c1` [Compound 87], at least 20 µM.
The value for `O=C(Nc1cc2ccccc2cn1)N1CCN(c2cccc(C(F)(F)F)c2)CC1` [Compound 152] was at least 20 µM; that for `COc1cccc(NC(=S)N2CCN(c3cc(C(F)(F)F)cc(C(F)(F)F)c3)CC2)n1` [Compound 188] was below 5 µM; that for `Cc1cc(C)nc(NC(=S)N2CCN(c3cc(Br)cc(C(F)(F)F)c3)CC2)c1` [Compound 142] was 5 to 10 µM.
Turning to `Cc1cc(C)nc(NC(=S)N2CCN(c3ccc(C(F)(F)F)cc3C(F)(F)F)CC2)c1` [Compound 209], the IC50 lay within 5 to 10 µM.
The value for `Cc1ccnc(NC(=S)N2CCN(c3ncc(C(F)(F)F)cc3Cl)CC2)c1` [Compound 176] was 5 to 10 µM.
Regarding `Cc1ccnc(NC(=S)N2CCN(c3ccc(C#N)cc3)CC2)c1` [Compound 10], the IC50 is at least 20 µM.
`S=C(Nc1cc(Cl)ccn1)N1CCN(c2cc(Cl)cc(Cl)c2)CC1` [Compound 197]: the IC50 is at least 20 µM.
Regarding `CC(Cc1ccccc1)C(=O)Nc1ccc(Cl)cc1C(=O)O` (stereo not shown) [Compound 20], the IC50 was at least 20 µM.
The value for `COc1ccnc(NC(=S)N2CCN(c3cccc(C(F)(F)F)c3)CC2)c1` [Compound 36] was below 5 µM; that for `Cc1cc(C)nc(NC(=S)N2CCN(c3nncs3)CC2)c1` [Compound 131] was at least 20 µM; that for `Cc1cc(C)nc(NC(=S)N2CCN(c3cc(C(F)(F)F)nc4ccc(C(F)(F)F)cc34)CC2)c1` [Compound 158] was 5 to 10 µM.
Regarding `Cc1cc(C)nc(NC(=S)N2CCN(Cc3ccccc3Br)CC2)c1` [Compound 285], the IC50 was 10 to 20 µM.
Turning to `Cc1ccnc(NC(=S)NCCNc2cccc(C(F)(F)F)c2)c1` [Compound 22], the IC50 lay within 5 to 10 µM.
The result for `Cc1cc(C)nc(NC(=S)N2CCN(c3cc(Cl)c(Cl)cc3Cl)CC2)c1` [Compound 220] reads at least 20 µM; that for `Nc1nc(NC(=S)N2CCN(c3cccc(C(F)(F)F)c3)CC2)n[nH]1` [Compound 231], at least 20 µM.
In the case of `Cc1cc(C)nc(NC(=S)N2CCN(c3cc(Cl)cc(C(F)(F)F)c3)CC2)c1` [Compound 137], the IC50 lay within 10 to 20 µM.
Consider `COc1ccc2nc(NC(=S)N3CCN(c4cccc(C(F)(F)F)c4)CC3)[nH]c2c1` [Compound 240], for which the IC50 is at least 20 µM.
The result for `Cc1cc(C)nc(NC(=S)N2CCCC(Nc3ccc(C(F)(F)F)cc3)C2)c1` (stereo not shown) [Compound 252] reads below 5 µM; that for `Cc1cc(C)nc(NC(=S)N2CCN(c3ccc(C(F)(F)F)cc3Cl)CC2)c1` [Compound 212], 5 to 10 µM.
For the molecule `Cc1cc(C)nc(NC(=S)N2CCCC(NC(=O)c3cccc(C(F)(F)F)c3)C2)c1` (stereo not shown) [Compound 262, N-(1-((4,6-dimethylpyridin-2-yl)carbamothioyl)piperidin-3-yl)-3-(trifluoromethyl)benzamide], the IC50 is below 5 µM.
The result for `COc1cccc(NC(=S)N2CCN(c3cccc(C(F)(F)F)c3)CC2)n1` [Compound 38] reads 5 to 10 µM; that for `Cc1cc(C)nc(NC(=S)N2CCC(C(=O)N3CCCCC3)CC2)c1` [Compound 260], at least 20 µM.
For the molecule `FC(F)(F)c1cccc(N2CCN(C(=S)Nc3nc4ccccc4[nH]3)CC2)c1` [Compound 228], the IC50 was below 5 µM.
The value for `COc1ccc2nc(NC(=S)N3CCN(c4cccc(C(F)(F)F)c4)CC3)[nH]c2c1` [Compound 243] was below 5 µM.
Take `Cc1cc(C)nc(NC(=S)N2CCN(c3cc(C(F)(F)F)nc(C)n3)CC2)c1` [Compound 153]: the IC50 lay in the range of 10 to 20 µM.
Consider `Cc1cc(C)nc(NC(=S)N2CC3CN(c4ncc(C(F)(F)F)cc4Cl)CC3C2)c1` (stereo not shown) [Compound 225], for which the IC50 is 10 to 20 µM.
The result for `Cc1cc(C)nc(NC(=S)N2CCN(c3ccc(Cl)cc3[N+](=O)[O-])CC2)c1` [Compound 218] reads 5 to 10 µM.
With `Cc1ccnc(NC(=S)N2CCN(c3cccc(C(F)(F)F)c3)C[C@@H]2C)c1` [Compound 48], the IC50 was in the range of 10 to 20 µM.
Turning to `Cc1ccnc(NC(=S)N2CCc3cccc(C(F)(F)F)c3C2)c1` [Compound 59], the IC50 is 10 to 20 µM.
The result for `COc1ccc(NC(=S)N2CCN(c3cccc(C(F)(F)F)c3)CC2)nc1` [Compound 37] reads at least 20 µM; that for `Cc1ccnc(NC(=S)N2CCN(c3ccc(Cl)cc3)CC2)c1` [Compound 8], at least 20 µM; that for `S=C(Nc1cc(Cl)ccn1)N1CCN(c2cccc(Cl)c2Cl)CC1` [Compound 226], 10 to 20 µM.
With `Cc1ccnc(NC(=S)N2CCN(c3cccc(N(C)C)c3)CC2)c1` [Compound 6], the IC50 fell in the range of 10 to 20 µM.
The result for `COc1ccccc1N[S+](=O)([O-])c1cc(NC(=O)Cc2ccc(Cl)cc2Cl)ccc1N1CCCC1` [Compound 248] reads at least 20 µM; that for `Cc1ccnc(NC(=S)NC2CCCN(c3cccc(C(F)(F)F)c3)C2)c1` (stereo not shown) [Compound 54], 5 to 10 µM.
The value for `Cc1cc(C)nc(NC(=S)N2CCN(Cc3ccc(C(F)(F)F)cc3)C(C)C2)c1` (stereo not shown) [Compound 275] was below 5 µM; that for `CSC(Cc1ccc(Cl)cc1)C(=O)Nc1ccc(Cl)cc1C(=O)O` (stereo not shown) [Compound 19] was at least 20 µM; that for `FC(F)(F)c1cccc(N2CCN(C(=S)Nc3ccc4ccccc4n3)CC2)c1` [Compound 34] was 10 to 20 µM.
The result for `Cc1cc(C)nc(NC(=S)N2CCN(c3ccc4ncccc4c3[N+](=O)[O-])CC2)c1` [Compound 124] reads 10 to 20 µM.
`COc1ccnc(NC(=S)N2CCN(c3ccc(Cl)c(Cl)c3)CC2)c1` [Compound 182]: the IC50 lay within 5 to 10 µM.
The result for `COc1cccc(NC(=S)N2CCN(c3cccc(C(F)(F)F)n3)CC2)n1` [Compound 194] reads 5 to 10 µM; that for `Cc1ccnc(NC(=S)N2CC3CN(c4cccc(C(F)(F)F)c4)CC3C2)c1` (stereo not shown) [Compound 45], 10 to 20 µM.
The value for `Cc1cc(C)nc(NC(=S)N2CCN(CCN3CCCCC3)CC2)c1` [Compound 256] was at least 20 µM.
The value for `Cc1cc(C)nc(NC(=S)N2CCN(Cc3ccc(C(F)(F)F)cc3)C(CO)C2)c1` (stereo not shown) [Compound 294] was 10 to 20 µM.
`FC(F)(F)c1cccc(N2CCN(C(=S)Nc3cc(C(F)(F)F)ccn3)CC2)c1` [Compound 26]: the IC50 was in the range of 5 to 10 µM.
The value for `Cc1cc(C)nc(NC(=S)N2CCN(c3ccc(Cl)cc3F)CC2)c1` [Compound 219] was 5 to 10 µM; that for `Cc1cccc2nc(NC(=S)N3CCN(c4cccc(C(F)(F)F)c4)CC3)[nH]c12` [Compound 247] was below 5 µM.
With `FC(F)(F)c1cccc(N2CCN(C(=S)Nc3nc4ccc(C(F)(F)F)cc4[nH]3)CC2)c1` [Compound 246], the IC50 fell in the range of 5 to 10 µM.
The result for `O=C(Nc1cccc([S+](=O)([O-])Nc2ccccc2F)c1)c1cccs1` [Compound 245] reads at least 20 µM; that for `Cc1cc(C)nc(NC(=C(C#N)C#N)N2CCN(c3cccc(C(F)(F)F)c3)CC2)c1` [Compound 96], at least 20 µM; that for `Cc1ccnc(NC(=S)N2CC[C@@H](Nc3cccc(C(F)(F)F)c3)C2)c1` [Compound 55], at least 20 µM.
The value for `Cc1cc(C)nc(NC(=S)N2CCN(c3ccc(-c4ccccc4)cc3)CC2)c1` [Compound 133] was at least 20 µM; that for `FC(F)(F)c1cccc(N2CCN(C(=S)Nc3nc[nH]n3)CC2)c1` [Compound 233] was 5 to 10 µM; that for `FC(F)(F)c1cccc(N2CCN(C(=S)Nc3ccccn3)CC2)c1` [Compound 35] was 5 to 10 µM.
The value for `Cc1cc(C)nc(NC(=S)N2CCN(c3nccc4ccccc34)CC2)c1` [Compound 132] was 10 to 20 µM.
In the case of `COc1ccnc(NC(=S)N2CCN(c3cccc(C(F)(F)F)n3)CC2)c1` [Compound 184], the 50% inhibitory concentration (IC50) lay within 5 to 10 µM.
The result for `Cc1cc(C)nc(NC(=S)N2CCN(c3ccc4nccn4c3)CC2)c1` [Compound 162] reads at least 20 µM; that for `Cc1ccnc(NC(=S)N2CCCC(Nc3cccc(C(F)(F)F)c3)C2)c1` (stereo not shown) [Compound 58], 5 to 10 µM.
As to `COC(=O)c1ccnc(NC(=S)N2CCN(c3cccc(C(F)(F)F)c3)CC2)c1` [Compound 28], the IC50 was below 5 µM.
The result for `Cc1cc(C)nc(NC(=S)N2CCN(Cc3ccccc3C)CC2)c1` [Compound 276] reads at least 20 µM.
The result for `O=[N+]([O-])c1cc(C(F)(F)F)ccc1N1CCN(C(=S)Nc2cc(Cl)ccn2)CC1` [Compound 201] reads 10 to 20 µM.
The result for `Cc1cc(C)nc(NC(=S)N2CCN(c3cccc(OC(F)(F)F)c3)CC2)c1` [Compound 134] reads 5 to 10 µM.
With `COc1ccccc1N[S+](=O)([O-])c1cc(NC(=O)c2ccc3ccccc3n2)ccc1N1CCCC1` [Compound 249], the 50% inhibitory concentration (IC50) was at least 20 µM.
The value for `Cc1cc(C)nc(NC(=S)N2CCN(c3cnc4nccn4c3)CC2)c1` [Compound 160] was at least 20 µM.
The value for `Cc1cc(C)nc(NC(=S)N2CCN(c3cncs3)CC2)c1` [Compound 157] was at least 20 µM; that for `FC(F)(F)c1cccc(N2CCN(C(=S)Nc3nccc4cccnc34)CC2)c1` [Compound 204] was 10 to 20 µM; that for `S=C(Nc1cc(Cl)ccn1)N1CCN(c2ccc(Cl)c(Cl)c2)CC1` [Compound 200] was 10 to 20 µM.
